Reference: US20230023092A1, “TREATMENT OF DEPRESSION AND OTHER VARIOUS DISORDERS WITH PSILOCYBIN” (COMPASS […], priority 2019, published 2023)

Key:
[1] = system: Wistar-Kyoto (WKY) rats; assay: Sleep-wake scoring (EEG/EMG: wake, NREM, REM) in rat model of TRD; format: in vivo; settings: 5 and 10 mg/kg, s.c.
Text: Since WKY rats show decreased sensitivity to conventional monoamine-based antidepressant treatment, they are used as a model of TRD.
Male (WKY) rats (200-250 g) were implanted with electroencephalography (EEG) and electromyography (EMG) electrodes and telemetry transmitters under general anesthesia (2-5% isoflurane in Oxygen). A telemetry transmitter (HD-502, Data Sciences International) was placed in the peritoneal cavity, and the wires of the transmitter were passed through the muscle wall and then sub-dermally to the scalp to act as EEG/EMG electrodes. Two bore holes were made in the skull (Fronto-parietal coordinates; Bregma +2 mm anterior, midline +1.0 mm lateral and Lambda 0 mm, +1.5 mm lateral). The positive EEG electrode was attached to the anterior bore hole and the negative EEG electrode to the posterior bore hole. Both electrodes were secured in place using a suitable adhesive agent (Cyanoacrylate gel, RS components). […]
Animals were maintained on a 12/12 hour light dark cycle. On study days, the animals were placed in recording boxes and EEG/EMG, locomotor activity, as well as body temperature were recorded for 0.5 hours before and 24 hours after each dosing. […]
The subsequent EEG/EMG recordings were automatically scored as wake, non-REM (NREM) sleep, or REM sleep in 10 second epochs using SleepSign (Kissei Comtec, Japan). […]

[2] = system: subjects; settings: 20 mg escitalopram; cited from earlier work
[3] = post-ingestion; cited from earlier work

SMILES | Amount of REM sleep [1] | Frequency of common side effects: agitation or restlessness; diarrhea; difficulty sleeping; drowsiness; dry mouth; headache; nausea; sexual difficulties; dizziness; sweating [2] | Time to peak plasma concentration [3] [h]
CNC1(c2ccccc2Cl)CCCCC1=O (stereo not drawn) [ketamine] | decreased the amount of REM sleep in a dose-dependent manner | – | –
CN(C)CCC[C@@]1(c2ccc(F)cc2)OCc2cc(C#N)ccc21 [escitalopram] | – | Common (~10% at 20 mg escitalopram) | 3 to 4
